From ChEMBL document CHEMBL1201862, “PubChem BioAssay data set” (2004)
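Briefly, cells in 96-well plates were exposed to five compound concentrations for 48 h, and endpoints were estimated by linear interpolation. Abbreviation: GI50, concentration required for 50% inhibition of growth.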 Active and inactive are the calls of the source. Rule as the data show it: active = GI50 up to about 1.1 µM and inactive = higher. Where a SMILES comes first, the peptide text is derived from it. [ ]: non-standard residue; d: D form. The star is where a group is joined. ξ: configuration not given here. X4 = COc1ccc(C(N*)c2ccc(OC)cc2)cc1; NMeF = CN[C@@H](Cc1ccccc1)C(=O)O; NMeD = CN[C@@H](CC(=O)O)C(=O)O; NMeV = CN[C@H](C(=O)O)C(C)C; ξNMeV = CNC(C(=O)O)C(C)C; Boc = CC(C)(C)OC(=O)*; ξNMeA = CNC(C)C(=O)O; ξV = CC(C)C(N)C(=O)O

Tests used:
Experiment in all cases: NCI anticancer screen, dose series, 48 h
Malme-3M = system: Malme-3M
OVCAR-8 = system: OVCAR-8
SK-MEL-2 = system: SK-MEL-2
SNB-75 = system: SNB-75
LOX IMVI = system: LOX IMVI
SF-295 = system: SF-295
MOLT-4 = system: MOLT-4
NCI-H23 = system: NCI-H23
RPMI-8226 = system: RPMI-8226
PC-3 = system: PC-3
KM12 = system: KM12
T47D = system: T47D
DMS-273 = system: DMS-273
M14 = system: M14
COLO 205 = system: COLO 205
SF-268 = system: SF-268
NCI/ADR-RES = system: NCI/ADR-RES
HOP-62 = system: HOP-62
U-251 = system: U-251
UACC-62 = system: UACC-62

Measured: GI50

COc1ccc(C(NC(=O)C[C@@H](C(=O)N(C)C(C)C(=O)O)N(C)C(=O)[C@@H]2CCCN2C(=O)[C@H](C(C)C)N(C)C(=O)C(C(C)C)N(C)C(=O)[C@H](Cc2ccccc2)N(C)C(=O)C(NC(=O)OC(C)(C)C)C(C)C)c2ccc(OC)cc2)cc1 (stereo not given in full) (Boc-[ξV][NMeF][ξNMeV][NMeV]P[NMeD](X4)[ξNMeA]-OH)
inactive: Malme-3M 14.4 µM | OVCAR-8 22.1 µM | SK-MEL-2 7.74 µM | SNB-75 4.24 µM | LOX IMVI 7.66 µM | SF-295 18.9 µM | MOLT-4 8.39 µM | NCI-H23 10.4 µM | RPMI-8226 8.24 µM | PC-3 13.7 µM | KM12 7.18 µM | T47D 11.9 µM | DMS-273 17.2 µM | M14 11.8 µM | COLO 205 20.4 µM | SF-268 7.53 µM | NCI/ADR-RES > 37.5 µM | HOP-62 13.4 µM | U-251 9.75 µM | UACC-62 6.73 µM
